Laboratory results published in patent US8952024B2, “Herbicidal pyrimidone derivatives” (E I du Pont de Nemours and Company, priority 2009, dated 2015).

Columns and labels:
Format in all cases: in vivo
[1] = tested on: chickweed (Stellaria media); assay: Test B postemergence plant response; details: for Plant response rating, Chickweed: Postemergence; for Chickweed plant response rating (0 to 100 scale): 62 g ai/ha, postemergence, 0 is no effect, 100 is complete control
How it was run: (§1)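 Plants grown in peat/vermiculite medium were sprayed postemergence at 2–18 cm height (1- to 4-leaf stage). After 13–15 days in the greenhouse, response was rated visually against untreated controls on a 0–100 scale (0 no effect, 100 complete control).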

[2] = tested on: winter barley (Hordeum vulgare); assay: Test B postemergence plant response; details: for Plant response rating, Barley: Postemergence; for Barley plant response rating (0 to 100 scale): 62 g ai/ha, postemergence, 0 is no effect, 100 is complete control
How it was run: as §1

[3] = tested on: canarygrass (Phalaris minor); assay: Test B postemergence plant response; details: for Plant response rating, Canarygrass: Postemergence; for Canarygrass plant response rating (0 to 100 scale): 62 g ai/ha, postemergence, 0 is no effect, 100 is complete control
How it was run: as §1

[4] = tested on: windgrass (Apera spica-venti); assay: Test B postemergence plant response; details: for Plant response rating, Windgrass: Postemergence; for Windgrass plant response rating (0 to 100 scale): 62 g ai/ha, postemergence, 0 is no effect, 100 is complete control
How it was run: as §1

[5] = tested on: wheat (Triticum aestivum); assay: Test A pre-/postemergence plant response
How it was run: (§2)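 Injury scores (0, no effect; 100, complete control) come from visual comparison with untreated controls roughly ten days post-treatment. Test chemicals in a surfactant-containing non-phytotoxic solvent were applied as a directed soil spray preemergence and to one- to two-leaf seedlings postemergence.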

[6] = tested on: morningglory (Ipomoea spp.); assay: Test A pre-/postemergence plant response
How it was run: as §2

[7] = tested on: giant foxtail (Setaria faberii); assay: Test A pre-/postemergence plant response
How it was run: as §2

[8] = tested on: pigweed (Amaranthus retroflexus); assay: Test A pre-/postemergence plant response
How it was run: as §2

[9] = tested on: velvetleaf (Abutilon theophrasti); assay: Test A pre-/postemergence plant response
How it was run: as §2

[10] = tested on: large crabgrass (Digitaria sanguinalis); assay: Test A pre-/postemergence plant response
How it was run: as §2

corn (Zea mays) = assay: Test A pre-/postemergence plant response
How it was run: as §2

[11] = tested on: barnyardgrass (Echinochloa crus-galli); assay: Test A pre-/postemergence plant response
How it was run: as §2

[12] = 31 g ai/ha, 0 to 100 scale (0 no effect, 100 complete control)
[13] = 125 g ai/ha, scale 0 to 100 (0 no effect, 100 complete control)
[14] = Postemergence, 125 g ai/ha, 0 to 100 scale where 0 is no effect and 100 is complete control
[15] = Postemergence, 500 g ai/ha, 0 to 100 scale, 0 = no effect, 100 = complete control, approx. ten days
[16] = Preemergence, 125 g ai/ha, 0 to 100 scale, 0 = no effect, 100 = complete control
[17] = Preemergence, 500 g ai/ha, visual injury, 0 to 100 scale (0 no effect, 100 complete control), approx. ten days
[18] = 250 g ai/ha, scale 0 to 100 (0 no effect, 100 complete control), 13 to 15 days

For `O=C1CCCC(O)=C1C(=O)c1cnc(-c2ccccc2)n(C2CCCC2)c1=O` [Compound 131], the “Plant response rating, Chickweed” value ([1]; 16 g ai/ha, 0 to 100 scale) was 45, the “Chickweed plant response rating (0 to 100 scale)” value (“Chickweed plant response rating” for short) ([1]; 13 to 15 days) was 80 and the “Plant response rating, Chickweed” value [1, 12] was 65. For the same compound, the “Plant response rating, Chickweed” value [1, 13] was 90, the “Plant response rating, Barley” value ([2]; 16 g ai/ha, 0 to 100 scale) was 0 and the “Barley plant response rating (0 to 100 scale)” value (from here on “Barley plant response rating”) ([2]; 13 to 15 days) was 0. The “Plant response rating, Barley” value [2, 12] was 0, the “Plant response rating, Barley” value [2, 13] was 0 and the “Plant response rating, Canarygrass” value ([3]; 16 g ai/ha, 0 to 100 scale) was 0. For the same compound, the “Canarygrass plant response rating (0 to 100 scale)” value (shortened to “Canarygrass plant response rating”) ([3]; 13 to 15 days) was 0, the “Plant response rating, Canarygrass” value [3, 12] was 0 and the “Plant response rating, Canarygrass” value [3, 13] was 0. For the same compound, the “Plant response rating, Windgrass” value ([4]; 16 g ai/ha, 0 to 100 scale) was 0, the “Windgrass plant response rating (0 to 100 scale)” value (“Windgrass plant response rating” for short) ([4]; 13 to 15 days) was 0 and the “Plant response rating, Windgrass” value [4, 12] was 0. For the same compound, the “Plant response rating, Windgrass” value [4, 13] was 5, the “Plant response rating, Wheat” value [5, 14] was 0 and the “Plant response rating, Wheat” value [5, 15] was 0. For the same compound, the “Plant response rating, Wheat” value [5, 16] was 0, the “Plant response rating, Wheat” value [5, 17] was 0 and the “Plant response rating, Morningglory” value [6, 14] was 100. For the same compound, the “Plant response rating, Morningglory” value [6, 15] was 100, the “Plant response rating, Morningglory” value [6, 17] was 80 and the “Plant response rating, Foxtail, Giant” value [7, 14] was 80. For the same compound, the “Plant response rating, Foxtail, Giant” value [7, 15] was 90, the “Plant response rating, Foxtail, Giant” value [7, 16] was 60 and the “Plant response rating, Foxtail, Giant” value [7, 17] was 80. For the same compound, the “Plant response rating, Pigweed” value [8, 14] was 100, the “Plant response rating, Pigweed” value [8, 15] was 100 and the “Plant response rating, Pigweed” value [8, 16] was 100. For the same compound, the “Plant response rating, Pigweed” value [8, 17] was 100, the “Plant response rating, Velvetleaf” value [9, 14] was 100 and the “Plant response rating, Velvetleaf” value [9, 15] was 100. For the same compound, the “Plant response rating, Velvetleaf” value [9, 16] was 80, the “Plant response rating, Velvetleaf” value [9, 17] was 100 and the “Plant response rating, Crabgrass, Large” value [10, 14] was 90. The “Plant response rating, Crabgrass, Large” value [10, 15] was 90, the “Plant response rating, Crabgrass, Large” value [10, 16] was 80 and the “Plant response rating, Crabgrass, Large” value [10, 17] was 100. The “Plant response rating, Corn” value (corn (Zea mays); [14]) was 0, the “Plant response rating, Corn” value (corn (Zea mays); [15]) was 30 and the “Plant response rating, Corn” value (corn (Zea mays); [16]) was 0. The “Plant response rating, Corn” value (corn (Zea mays); [17]) was 0, the “Plant response rating, Barnyardgrass” value [11, 14] was 90 and the “Plant response rating, Barnyardgrass” value [11, 15] was 90. The “Plant response rating, Barnyardgrass” value [11, 16] was 50 and the “Plant response rating, Barnyardgrass” value [11, 17] was 100.
In the case of `COCCCn1c(-c2cccc(Br)c2)ncc(C(=O)C2=C(O)CCCC2=O)c1=O` [Compound 140], the “Chickweed plant response rating” value ([1]; 13 to 15 days) is reported as 10, the “Plant response rating, Chickweed” value [1, 12] is reported as 0 and the “Plant response rating, Chickweed” value [1, 13] is reported as 45. For the same compound, the “Plant response rating, Chickweed” value [1, 18] was 75, the “Barley plant response rating” value ([2]; 13 to 15 days) was 0 and the “Plant response rating, Barley” value [2, 12] was 0. For the same compound, the “Plant response rating, Barley” value [2, 13] was 0, the “Plant response rating, Barley” value [2, 18] was 0 and the “Canarygrass plant response rating” value ([3]; 13 to 15 days) was 0. The “Plant response rating, Canarygrass” value [3, 12] was 0, the “Plant response rating, Canarygrass” value [3, 13] was 5 and the “Plant response rating, Canarygrass” value [3, 18] was 5. For the same compound, the “Windgrass plant response rating” value ([4]; 13 to 15 days) was 5, the “Plant response rating, Windgrass” value [4, 12] was 0 and the “Plant response rating, Windgrass” value [4, 13] was 5. For the same compound, the “Plant response rating, Windgrass” value [4, 18] was 30, the “Plant response rating, Wheat” value [5, 14] was 0 and the “Plant response rating, Wheat” value [5, 15] was 0. The “Plant response rating, Wheat” value [5, 16] was 0, the “Plant response rating, Wheat” value [5, 17] was 0 and the “Plant response rating, Morningglory” value [6, 14] was 100. For the same compound, the “Plant response rating, Morningglory” value [6, 15] was 100, the “Plant response rating, Morningglory” value [6, 16] was 30 and the “Plant response rating, Morningglory” value [6, 17] was 50. The “Plant response rating, Foxtail, Giant” value [7, 14] was 80, the “Plant response rating, Foxtail, Giant” value [7, 15] was 90 and the “Plant response rating, Foxtail, Giant” value [7, 16] was 40. The “Plant response rating, Foxtail, Giant” value [7, 17] was 90, the “Plant response rating, Pigweed” value [8, 14] was 90 and the “Plant response rating, Pigweed” value [8, 15] was 100. The “Plant response rating, Pigweed” value [8, 16] was 80, the “Plant response rating, Pigweed” value [8, 17] was 100 and the “Plant response rating, Velvetleaf” value [9, 14] was 100. For the same compound, the “Plant response rating, Velvetleaf” value [9, 15] was 100, the “Plant response rating, Velvetleaf” value [9, 16] was 80 and the “Plant response rating, Velvetleaf” value [9, 17] was 100. The “Plant response rating, Crabgrass, Large” value [10, 14] was 90, the “Plant response rating, Crabgrass, Large” value [10, 15] was 90 and the “Plant response rating, Crabgrass, Large” value [10, 16] was 70. For the same compound, the “Plant response rating, Crabgrass, Large” value [10, 17] was 90, the “Plant response rating, Corn” value (corn (Zea mays); [14]) was 0 and the “Plant response rating, Corn” value (corn (Zea mays); [15]) was 20. For the same compound, the “Plant response rating, Corn” value (corn (Zea mays); [16]) was 0, the “Plant response rating, Corn” value (corn (Zea mays); [17]) was 0 and the “Plant response rating, Barnyardgrass” value [11, 14] was 90. For the same compound, the “Plant response rating, Barnyardgrass” value [11, 15] was 90, the “Plant response rating, Barnyardgrass” value [11, 16] was 60 and the “Plant response rating, Barnyardgrass” value [11, 17] was 100.
`CCCn1c(-c2cccc(Br)c2)ncc(C(=O)C2=C(O)CCCC2=O)c1=O` [Compound 141] was tested, and the “Chickweed plant response rating” value ([1]; 13 to 15 days) was 85, the “Plant response rating, Chickweed” value [1, 12] was 60 and the “Plant response rating, Chickweed” value [1, 13] was 90. For the same compound, the “Plant response rating, Chickweed” value [1, 18] was 95, the “Barley plant response rating” value ([2]; 13 to 15 days) was 0 and the “Plant response rating, Barley” value [2, 12] was 0. The “Plant response rating, Barley” value [2, 13] was 5, the “Plant response rating, Barley” value [2, 18] was 5 and the “Canarygrass plant response rating” value ([3]; 13 to 15 days) was 0. The “Plant response rating, Canarygrass” value [3, 12] was 0, the “Plant response rating, Canarygrass” value [3, 13] was 5 and the “Plant response rating, Canarygrass” value [3, 18] was 5. For the same compound, the “Windgrass plant response rating” value ([4]; 13 to 15 days) was 35, the “Plant response rating, Windgrass” value [4, 12] was 25 and the “Plant response rating, Windgrass” value [4, 13] was 40. For the same compound, the “Plant response rating, Windgrass” value [4, 18] was 50, the “Plant response rating, Wheat” value [5, 14] was 0 and the “Plant response rating, Wheat” value [5, 15] was 0. The “Plant response rating, Wheat” value [5, 16] was 0, the “Plant response rating, Wheat” value [5, 17] was 0 and the “Plant response rating, Morningglory” value [6, 14] was 70. For the same compound, the “Plant response rating, Morningglory” value [6, 15] was 100, the “Plant response rating, Morningglory” value [6, 16] was 0 and the “Plant response rating, Morningglory” value [6, 17] was 30. For the same compound, the “Plant response rating, Foxtail, Giant” value [7, 14] was 80, the “Plant response rating, Foxtail, Giant” value [7, 15] was 90 and the “Plant response rating, Foxtail, Giant” value [7, 16] was 40. For the same compound, the “Plant response rating, Foxtail, Giant” value [7, 17] was 80, the “Plant response rating, Pigweed” value [8, 14] was 90 and the “Plant response rating, Pigweed” value [8, 15] was 100. For the same compound, the “Plant response rating, Pigweed” value [8, 16] was 70, the “Plant response rating, Pigweed” value [8, 17] was 100 and the “Plant response rating, Velvetleaf” value [9, 14] was 100. For the same compound, the “Plant response rating, Velvetleaf” value [9, 15] was 100, the “Plant response rating, Velvetleaf” value [9, 16] was 70 and the “Plant response rating, Velvetleaf” value [9, 17] was 100. The “Plant response rating, Crabgrass, Large” value [10, 14] was 80, the “Plant response rating, Crabgrass, Large” value [10, 15] was 90 and the “Plant response rating, Crabgrass, Large” value [10, 16] was 80. The “Plant response rating, Crabgrass, Large” value [10, 17] was 100, the “Plant response rating, Corn” value (corn (Zea mays); [14]) was 20 and the “Plant response rating, Corn” value (corn (Zea mays); [15]) was 30. The “Plant response rating, Corn” value (corn (Zea mays); [16]) was 0, the “Plant response rating, Corn” value (corn (Zea mays); [17]) was 0 and the “Plant response rating, Barnyardgrass” value [11, 14] was 90. For the same compound, the “Plant response rating, Barnyardgrass” value [11, 15] was 90, the “Plant response rating, Barnyardgrass” value [11, 16] was 60 and the “Plant response rating, Barnyardgrass” value [11, 17] was 100.
